Reference: patent publication US7465549B2 (UCB, S.A., priority 2002, dated 2008)
Where two headings read alike, the source gives them in different places.

Legend:
[1] = molecular target: T1, levetiracetam binding site (LBS) (Rattus norvegicus, UniProt Q02563); conditions: cited from earlier work; for displacement of LEV binding: rat brain LBS
T1 construct: host or cells: crude rat brain membranes (Noyer et al. 1995; Gillard et al. 2003)

[2] = system: LBS in peripheral tissues; conditions: heart, kidneys, spleen, pancreas, adrenals, lungs and liver; radiolabel studies; cited from earlier work
[3] = system: audiogenic-susceptible mouse; conditions: cited from earlier work
LBS = molecular target: T2, LBS (Rattus norvegicus, UniProt Q02563); experiment: autoradiography of [3H]ucb 30889 binding on rat brain sections
T2 construct: from tissue; host or cells: rat brain (crude membranes; 25 µm sections for autoradiography)
T2 sequence (Q02563 whole entry): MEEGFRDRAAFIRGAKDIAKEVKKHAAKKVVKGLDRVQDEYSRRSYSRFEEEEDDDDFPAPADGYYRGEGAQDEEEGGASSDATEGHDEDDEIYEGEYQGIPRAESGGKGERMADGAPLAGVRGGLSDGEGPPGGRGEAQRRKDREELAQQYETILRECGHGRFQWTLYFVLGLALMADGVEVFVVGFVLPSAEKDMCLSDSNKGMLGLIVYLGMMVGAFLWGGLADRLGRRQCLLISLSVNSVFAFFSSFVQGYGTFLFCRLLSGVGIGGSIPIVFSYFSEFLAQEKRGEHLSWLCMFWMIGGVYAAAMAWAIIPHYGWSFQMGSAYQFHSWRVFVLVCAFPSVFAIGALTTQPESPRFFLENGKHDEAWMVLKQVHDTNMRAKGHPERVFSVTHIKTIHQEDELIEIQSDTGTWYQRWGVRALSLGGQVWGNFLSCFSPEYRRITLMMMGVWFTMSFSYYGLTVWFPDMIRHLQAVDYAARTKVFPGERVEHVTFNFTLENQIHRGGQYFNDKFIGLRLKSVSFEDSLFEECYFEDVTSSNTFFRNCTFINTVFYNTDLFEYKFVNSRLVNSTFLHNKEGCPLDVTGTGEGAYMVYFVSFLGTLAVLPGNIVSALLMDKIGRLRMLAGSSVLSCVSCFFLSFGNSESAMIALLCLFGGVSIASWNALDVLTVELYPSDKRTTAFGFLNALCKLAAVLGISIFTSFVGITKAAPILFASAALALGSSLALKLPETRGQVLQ
Description: (§1) Binding experiments were conducted on crude rat brain membranes at 4° C. as described in Noyer et al. (Euro. J. Pharmacol. 286: 137-146 (1995)). Incubation time for equilibrium studies was 120 min. For kinetic and competition studies, [^3H]ucb 30889 (30 Ci/mmol) was used at a concentration of 1.3 nM in 0.5 ml of a Tris-HCl (pH 7.4) buffer containing 2 mM Mg^2+. Localization of the LBS in brain substructures was assessed by autoradiography on 25 μm thick slices incubated under similar conditions. Slides were then washed twice for 10 min at 4° C. in 50 mM Tris-HCl (pH 7.4) containing 0.5% BSA, dried and exposed for 3 weeks to [^3H]Hyperfilm at −20° C. Non-specific binding (NSB) was determined by the inclusion of 1 mM LEV during the incubation period.

hSV2C = molecular target: T3, hSV2C (Homo sapiens, UniProt Q496J9); experiment: [3H]ucb 30889 binding to hSV2C in transient COS-7 system
T3 construct: expressed in transfected cells; host or cells: COS-7, transient
T3 sequence (Q496J9 1-727): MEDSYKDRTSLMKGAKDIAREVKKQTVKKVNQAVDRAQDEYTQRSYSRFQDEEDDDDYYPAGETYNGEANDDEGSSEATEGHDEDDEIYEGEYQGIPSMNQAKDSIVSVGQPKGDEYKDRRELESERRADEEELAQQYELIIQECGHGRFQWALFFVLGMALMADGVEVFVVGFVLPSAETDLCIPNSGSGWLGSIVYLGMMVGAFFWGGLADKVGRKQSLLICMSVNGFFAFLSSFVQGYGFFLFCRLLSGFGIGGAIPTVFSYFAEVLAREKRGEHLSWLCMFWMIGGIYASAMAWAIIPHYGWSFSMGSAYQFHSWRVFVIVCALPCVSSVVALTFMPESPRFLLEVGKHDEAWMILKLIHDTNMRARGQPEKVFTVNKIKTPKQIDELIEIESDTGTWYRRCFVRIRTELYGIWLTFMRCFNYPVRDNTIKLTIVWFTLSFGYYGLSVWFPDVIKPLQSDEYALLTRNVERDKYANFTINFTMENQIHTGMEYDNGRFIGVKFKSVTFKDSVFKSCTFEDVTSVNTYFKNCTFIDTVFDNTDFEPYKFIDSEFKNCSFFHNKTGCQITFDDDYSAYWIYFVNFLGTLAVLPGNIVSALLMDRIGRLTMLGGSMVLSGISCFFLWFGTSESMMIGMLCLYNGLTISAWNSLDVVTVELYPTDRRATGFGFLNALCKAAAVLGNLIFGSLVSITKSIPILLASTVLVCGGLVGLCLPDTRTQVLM

[4] = molecular target: T1, levetiracetam binding site (LBS); experiment: [3H]ucb 30889 binding on crude rat brain membranes (kinetics, saturation, competition)
COS-7 = experiment: [3H]ucb 30889 binding in cell types
Description: To identify and characterize the LBS in situ, [^3H]ucb 30889 was used to map the LBS within the brain and to study both its cellular and subcellular distribution. For rat brain autoradiography, 25 μm slices were incubated with 1.3 nM [^3H]ucb 30889 for 120 min at 4° C. in 50 mM Tris-HCl buffer (pH 7.4). Binding assays with rat brain membranes and various neuronal cell lines were performed under similar conditions. […] For photolabeling, membranes were incubated with 40 nM [^3H]ucb 30889 for 120 min at 4° C. in the same buffer, followed by irradiation with UV-light for 30 min (Fuks et al., Eur. J. Pharmacol. 478:11-19 (2003)).
In addition, a PC12 cell line subclone, PC12a, which is low in LBS, was used to establish a pool of PC 12 cells expressing hSV2A under stable antibiotic selection.

hSV2B = molecular target: T4, hSV2B (Homo sapiens, UniProt Q7L1I2); experiment: [3H]ucb 30889 binding to hSV2B in transient COS-7 system
T4 construct: expressed in transfected cells; host or cells: COS-7, transient
T4 sequence (Q7L1I2 whole entry): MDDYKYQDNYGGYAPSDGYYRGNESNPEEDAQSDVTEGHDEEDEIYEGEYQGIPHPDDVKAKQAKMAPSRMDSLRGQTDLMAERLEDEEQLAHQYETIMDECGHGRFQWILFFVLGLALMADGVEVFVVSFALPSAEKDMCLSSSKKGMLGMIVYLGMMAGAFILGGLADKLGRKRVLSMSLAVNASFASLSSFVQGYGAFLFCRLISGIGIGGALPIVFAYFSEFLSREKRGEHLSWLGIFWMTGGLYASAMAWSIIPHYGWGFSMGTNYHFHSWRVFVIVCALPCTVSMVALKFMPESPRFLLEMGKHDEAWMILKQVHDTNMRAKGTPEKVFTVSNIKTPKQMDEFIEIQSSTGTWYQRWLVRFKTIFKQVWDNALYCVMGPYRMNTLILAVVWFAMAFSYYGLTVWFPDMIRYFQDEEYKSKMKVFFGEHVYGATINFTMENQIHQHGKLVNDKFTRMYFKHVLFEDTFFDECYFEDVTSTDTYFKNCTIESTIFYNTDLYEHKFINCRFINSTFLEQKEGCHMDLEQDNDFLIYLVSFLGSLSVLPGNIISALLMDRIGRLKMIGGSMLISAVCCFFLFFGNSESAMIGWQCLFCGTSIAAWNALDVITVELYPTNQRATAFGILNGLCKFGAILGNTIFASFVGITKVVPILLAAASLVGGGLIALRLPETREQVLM

[5] = system: LBS in peripheral tissues; experiment: radioligand binding in peripheral tissues; parameters: species or system rat; conditions: 150 μg of protein/assay, 1.3 nM radioligand
Description: as §1
The limit of detection under the experimental conditions (150 μg of protein/assay and 1.3 nM of radioligand) was a Bmax of 200 fmol/mg protein.

soluble SV2A = molecular target: T5, soluble SV2A (Rattus norvegicus, UniProt Q02563); experiment: binding to soluble SV2A (n-dodecyl-β-D-maltoside solubilized rat brain membranes)
T5 construct: the soluble protein maintains its native structural conformation in n-dodecyl-β-D-maltoside; from tissue; host or cells: rat brain membranes, detergent supernatant (100,000 g)
T5 sequence (Q02563 whole entry): as the sequence (Q02563 whole entry) above
Description: The rat brain membranes were diluted in a solubilization buffer (Tris-HCl 20 mM pH 7.4, 0.25 M sucrose, protease inhibitors Complete Roche) containing n-dodecyl-β-D-maltoside 15 mM and incubated for two hours at 4° C. Subsequently, the solution was centrifuged at 4° C. for one hour at 100,000 g. […] The supernatants were incubated with [^3H]ucb 30889 as described.

hSV2A = molecular target: T6, hSV2A (Homo sapiens, UniProt Q7L0J3); experiment: [3H]ucb 30889 binding to hSV2A transiently expressed in COS-7 cells; conditions: displacement of [3H]ucb 30889, COS-7 cells
T6 construct: expressed in transfected cells; host or cells: COS-7, transient, Lipofectamine 2000, pDEST 12.2 Gateway vector (CMV promoter)
T6 sequence (Q7L0J3 whole entry): as the sequence (Q02563 whole entry) above, with E53D, A62S, A71T, D144E, T154A, S440G, A482S, V572I, L634M counted along it

T1 sequence (Q02563 whole entry): as the sequence (Q02563 whole entry) above

## COc1ccc(C(=O)N2CCCC2=O)cc1 [aniracetam]
[1]
  displacement of LEV binding: displaced LEV binding

## NC(=O)N1c2ccccc2C=Cc2ccccc21 [carbamazepine]
[1]
  displacement of LEV binding: do not displace LEV binding

## CCC1(C)CC(=O)NC1=O (centres unmarked) [ethosuximide]
[1]
  displacement of LEV binding: competed with LEV

## NC(=O)OCC(COC(N)=O)c1ccccc1 [felbamate]
[1]
  displacement of LEV binding: do not displace LEV binding

## CC[C@@H](C(N)=O)N1CCCC1=O [levetiracetam, (S)-α-ethyl-2-oxo-1-pyrrolidine acetamide]
[2]
  specific binding in peripheral tissues: no specific binding
[3]
  suppression of seizures: unexpected potent ability of LEV to suppress seizures
LBS
  inhibition of [3H]ucb 30889 binding in brain sections: can be inhibited by levetiracetam at concentrations equivalent to those observed in in vitro binding
[1]; radioligand [3H]LEV
  affinity for LBS: only micromolar affinity

## O=C1NC(=O)C(c2ccccc2)(c2ccccc2)N1 [phenytoin]
[1]
  displacement of LEV binding: do not displace LEV binding

## Cc1ccsc1C(=CCCN1CCC[C@@H](C(=O)O)C1)c1sccc1C [tiagabine]
[1]
  displacement of LEV binding: do not displace LEV binding

## CC[C@@H](C(N)=O)N1CC(c2cccc(N=[N+]=[N-])c2)CC1=O (stereo partly drawn) [ucb 30889, (2S)-2-[4-(3-azidophenyl)-2-oxopyrrolidin-1-yl]butanamide]
hSV2C
  binding to hSV2C: no binding above background
[4]
  Bmax: 5054±704 fmol/mg protein
COS-7
  binding to untransfected COS-7 cell line: no binding above background
hSV2B
  binding to hSV2B: no binding above background
[5]
  specific binding in peripheral tissues: could not be detected
Soluble SV2A
  affinity for soluble SV2A compared with native membrane: equivalent to that exhibited by ligands to the native membrane

## CC[C@@H](C(N)=O)N1CCCC1=O [ucb L060]
hSV2A
  affinity to hSV2A compared with LEV: significantly less affinity

## CCCC(CCC)C(=O)O [valproate]
[1]
  displacement of LEV binding: do not displace LEV binding

## C=CC(N)CCC(=O)O (centres unmarked) [vigabatrin]
[1]
  displacement of LEV binding: do not displace LEV binding

## NS(=O)(=O)Cc1noc2ccccc12 [zonisamide]
[1]
  displacement of LEV binding: do not displace LEV binding
